SMILES strings stand for the structures.

For one experiment, the target named is CDK6/Cyclin D3 (Homo sapiens (Human), UniProt Q00534). The experiment is described as follows: CDK6/Cyclin D3 ADP-Glo Kinase Assay. The following applies: 100 uM ATP, read-out: CDK6/ CyclinD3 IC50. It counts as biochemical. In outline: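 Recombinant human CDK6/Cyclin D3 pre-incubated 30 min with inhibitor at room temperature, then reaction started with ATP/substrate and run 90 min at room temperature. ADP formed detected by ADP-Glo luminescence; IC50 from a 4-parameter fit of fractional velocity versus inhibitor concentration.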
Chain of CDK6/Cyclin D3 (Q00534 whole entry): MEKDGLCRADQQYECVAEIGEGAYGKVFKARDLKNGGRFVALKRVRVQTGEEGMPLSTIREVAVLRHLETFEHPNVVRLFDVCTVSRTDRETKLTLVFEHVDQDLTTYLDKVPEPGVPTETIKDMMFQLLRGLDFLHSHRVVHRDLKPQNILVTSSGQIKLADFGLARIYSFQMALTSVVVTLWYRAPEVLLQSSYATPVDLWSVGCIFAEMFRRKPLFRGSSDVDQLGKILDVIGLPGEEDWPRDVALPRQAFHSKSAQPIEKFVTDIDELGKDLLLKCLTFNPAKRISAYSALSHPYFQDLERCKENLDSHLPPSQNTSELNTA
Chain of CDK6/Cyclin D3 (P30281 whole entry partner): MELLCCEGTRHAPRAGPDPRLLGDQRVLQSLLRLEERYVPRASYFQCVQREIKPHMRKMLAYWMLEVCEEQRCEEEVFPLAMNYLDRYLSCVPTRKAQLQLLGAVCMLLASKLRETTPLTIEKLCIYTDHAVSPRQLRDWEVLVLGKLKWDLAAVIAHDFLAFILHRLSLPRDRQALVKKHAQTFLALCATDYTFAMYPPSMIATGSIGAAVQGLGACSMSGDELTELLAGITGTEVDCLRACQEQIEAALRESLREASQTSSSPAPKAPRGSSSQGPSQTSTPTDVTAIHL
Background: ADP-Glo first removes unused ATP, then detects ADP through luciferase.

The test system of a further experiment is MCF-7 cells. Description: Cell Growth Inhibition, MCF-7 (CellTiterGlo, 6 days). It counts as cell-based. Particulars: Homo sapiens, MCF7, 144 h; MCF-7, 6-day treatment, CellTiterGlo 2.0. In outline: (§1)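 MCF-7 and OVCAR-3 cells (RPMI, 10% FBS) were seeded at 500 cells/well onto compound, typically 10–10,000 nM in half-log dilutions. Growth proceeded 6 days at 37 °C, then CellTiterGlo luminescence was read. % inhibition was taken versus control, and IC50 came from a four-parameter variable-slope fit.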
Background: In ATP-based viability assays light output follows the ATP content of the culture.

In another experiment the target is CDK4/Cyclin D1 (Homo sapiens (Human), UniProt P11802). The experiment is described as follows: CDK4/Cyclin D1 CHEF Assay (AQT0258 peptide). It counts as biochemical. The following applies: 200 uM ATP, read-out: CDK4/ CyclinD1 AQT IC50. In outline:
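CDK4/Cyclin D1 (2.5 nM) phosphorylating 10 uM Sox-labelled peptide AQT0258 with 200 uM ATP (Km 195.2 uM), 10 mM MgCl2, 2% DMSO, 54 mM HEPES pH 7.5. Enzyme and inhibitor pre-incubated 30 min, reaction 3 hrs at 22° C.; CHEF fluorescence (ex 360/em 485 nm), IC50 from fractional velocity, 4-parameter fit.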

A further experiment relates to OVCAR-3 cells. The experiment is described as follows: Cell Growth Inhibition, OVCAR-3 (CellTiterGlo, 6 days). It counts as cell-based. Particulars: Homo sapiens, 144 h; OVCAR-3, 6-day treatment, CellTiterGlo 2.0. In a few lines: as §1
Experiment [1] concerns the target CDK2/Cyclin E1 full length (Homo sapiens (Human), UniProt P24941). The experiment is described as follows: CDK2/Cyclin E1 Full Length ADP-Glo Kinase Assay. It counts as biochemical. Particulars: 20 uM ATP, read-out: CDK2/ CyclinE1 IC50. In a few lines: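 Full-length human CDK2/Cyclin E1 (0.328 nM) pre-incubated 30 min with inhibitor at RT, then reacted 90 min at RT with 20 uM ATP (Km 64.78 uM) and 0.75 uM substrate in pH 7.5 HEPES, 2% DMSO. ADP measured by ADP-Glo luminescence; IC50 from 4-parameter fit of fractional velocity.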

The next experiment has as its target CDK1/Cyclin B1 (Homo sapiens (Human), UniProt P06493). The experiment is described as follows: CDK1/Cyclin B1 ADP-Glo Kinase Assay. It counts as biochemical. The following applies: 80 uM ATP. In a few lines: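 CDK1/cyclin B1 (4.917 nM) preincubated 30 min with inhibitor (2% DMSO), then 80 µM ATP (Km 78.6 µM) and 0.75 µM substrate added; 90 min, room temperature, pH 7.5. ADP measured by ADP-Glo luminescence; IC50 from 4-parameter fit.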

Chain of CDK4/Cyclin D1 (P11802 whole entry): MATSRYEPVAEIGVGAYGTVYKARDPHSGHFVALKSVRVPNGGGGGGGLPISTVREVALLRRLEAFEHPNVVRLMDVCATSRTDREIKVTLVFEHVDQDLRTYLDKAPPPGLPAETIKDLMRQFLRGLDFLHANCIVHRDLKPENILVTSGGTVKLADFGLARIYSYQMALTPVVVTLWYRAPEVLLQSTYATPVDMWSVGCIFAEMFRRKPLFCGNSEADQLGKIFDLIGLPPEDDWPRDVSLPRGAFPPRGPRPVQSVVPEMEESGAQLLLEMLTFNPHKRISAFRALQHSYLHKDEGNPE
Chain of CDK4/Cyclin D1 (P24385 whole entry partner): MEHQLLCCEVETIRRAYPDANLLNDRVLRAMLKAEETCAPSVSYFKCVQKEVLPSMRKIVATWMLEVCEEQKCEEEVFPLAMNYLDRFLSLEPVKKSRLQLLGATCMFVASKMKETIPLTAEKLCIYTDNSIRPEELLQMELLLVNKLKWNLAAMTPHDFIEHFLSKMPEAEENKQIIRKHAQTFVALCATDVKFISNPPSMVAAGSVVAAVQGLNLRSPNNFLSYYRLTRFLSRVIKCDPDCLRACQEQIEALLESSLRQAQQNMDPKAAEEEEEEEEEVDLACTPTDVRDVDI
Chain of CDK1/Cyclin B1 (P06493 whole entry): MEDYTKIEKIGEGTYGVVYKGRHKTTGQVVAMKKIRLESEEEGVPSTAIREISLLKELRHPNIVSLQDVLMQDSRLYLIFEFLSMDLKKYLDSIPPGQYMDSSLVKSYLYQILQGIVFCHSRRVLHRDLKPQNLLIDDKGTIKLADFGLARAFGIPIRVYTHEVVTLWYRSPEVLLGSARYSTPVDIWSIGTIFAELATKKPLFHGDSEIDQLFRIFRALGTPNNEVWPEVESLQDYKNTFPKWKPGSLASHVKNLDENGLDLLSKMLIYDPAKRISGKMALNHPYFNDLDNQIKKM
Chain of CDK1/Cyclin B1 (P14635 whole entry partner): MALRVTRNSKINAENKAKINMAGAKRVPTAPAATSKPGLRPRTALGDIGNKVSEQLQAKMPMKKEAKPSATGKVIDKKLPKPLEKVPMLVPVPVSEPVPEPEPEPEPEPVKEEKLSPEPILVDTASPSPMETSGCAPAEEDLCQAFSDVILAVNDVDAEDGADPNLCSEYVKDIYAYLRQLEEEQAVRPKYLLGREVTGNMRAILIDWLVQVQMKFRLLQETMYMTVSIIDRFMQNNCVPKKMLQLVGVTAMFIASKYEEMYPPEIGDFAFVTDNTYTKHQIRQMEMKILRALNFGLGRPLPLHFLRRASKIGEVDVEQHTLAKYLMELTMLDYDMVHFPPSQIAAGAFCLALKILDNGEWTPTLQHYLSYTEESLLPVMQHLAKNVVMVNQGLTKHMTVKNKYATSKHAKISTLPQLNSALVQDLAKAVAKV

With `O=S(=O)(C1CC1)N1CCC(Nc2ncc3cc(C(F)F)cc(N4CC5(CNCCO5)C4)c3n2)CC1` [Example 98, N-(1-(cyclopropylsulfonyl)piperidin-4-yl)-6-(difluoromethyl)-8-(5-oxa-2,8-diazaspiro[3.5]nonan-2-yl)quinazolin-2-amine], the IC50 on CDK6/Cyclin D3 was less than 0.2 µM; in the experiment with MCF-7 cells, 0.2 to 0.5 µM; on CDK4/Cyclin D1 it was less than 0.2 µM; in the experiment with OVCAR-3 cells it was 0.5 to 2 µM; in experiment [1] it was less than 0.2 µM; at CDK1/Cyclin B1, less than 0.2 µM.

Take `O=S(=O)(CC1CCC1)N1CCC(Nc2ncc3cc(C(F)F)cc(N4CC5(CCNC5)C4)c3n2)CC1` [Example 86, N-(1-((cyclobutylmethyl)sulfonyl)piperidin-4-yl)-6-(difluoromethyl)-8-(2,6-diazaspiro[3.4]octan-2-yl)quinazolin-2-amine]: the IC50 on CDK6/Cyclin D3 was less than 0.2 µM; in the experiment with MCF-7 cells, 0.5 to 2 µM; on CDK4/Cyclin D1, less than 0.2 µM; with OVCAR-3 cells, 0.5 to 2 µM; in experiment [1], less than 0.2 µM; against CDK1/Cyclin B1 it was less than 0.2 µM.

As for `FC(F)c1cc(N2CC3(CCNC3)C2)c2nc(Nc3ccc4c(c3)CN(C3CC3)C4)ncc2c1` [Example 82, N-(2-cyclopropylisoindolin-5-yl)-6-(difluoromethyl)-8-(2,6-diazaspiro[3.4]octan-2-yl)quinazolin-2-amine], the IC50 at CDK6/Cyclin D3 is less than 0.2 µM; in the experiment with MCF-7 cells it was 0.5 to 2 µM; at CDK4/Cyclin D1, less than 0.2 µM; in the experiment with OVCAR-3 cells, greater than 2 µM; in experiment [1], less than 0.2 µM; at CDK1/Cyclin B1 it was 0.5 to 2 µM.

Regarding `O=S(=O)(C1CC1)N1CCC(Nc2ncc3cc(C(F)F)cc(N4CC5(CCCNC5)C4)c3n2)CC1` [Example 80, N-(1-(cyclopropylsulfonyl)piperidin-4-yl)-6-(difluoromethyl)-8-(2,6-diazaspiro[3.5]nonan-2-yl)quinazolin-2-amine], the IC50 on CDK6/Cyclin D3 is less than 0.2 µM; with MCF-7 cells, 0.2 to 0.5 µM; on CDK4/Cyclin D1, less than 0.2 µM; in the experiment with OVCAR-3 cells, 0.2 to 0.5 µM; in experiment [1], less than 0.2 µM; on CDK1/Cyclin B1, less than 0.2 µM.

With `CC1(CS(=O)(=O)N2CCC(Nc3ncc4cc(C(F)F)cc(N5CC6(CCNC6)C5)c4n3)CC2)CC1` [Example 95, 6-(difluoromethyl)-N-(1-(((1-methylcyclopropyl)methyl)sulfonyl)piperidin-4-yl)-8-(2,6-diazaspiro[3.4]octan-2-yl)quinazolin-2-amine], the IC50 at CDK6/Cyclin D3 is less than 0.2 µM; in the experiment on MCF-7 cells it was 0.5 to 2 µM; on CDK4/Cyclin D1, less than 0.2 µM; with OVCAR-3 cells, 0.5 to 2 µM; in experiment [1], less than 0.2 µM; at CDK1/Cyclin B1, less than 0.2 µM.

As for `CS(=O)(=O)N1CCC(Nc2ncc3cc(C(F)F)cc(C4CC5(CCN(CC(F)(F)CO)C5)C4)c3n2)CC1` (stereo not drawn) [Example 106, 3-(2-(6-(difluoromethyl)-2-((1-(methylsulfonyl)piperidin-4-yl)amino)quinazolin-8-yl)-6-azaspiro[3.4]octan-6-yl)-2,2-difluoropropan-1-ol], the IC50 at CDK6/Cyclin D3 is less than 0.2 µM; with MCF-7 cells it was 0.5 to 2 µM; at CDK4/Cyclin D1 it was less than 0.2 µM; in the experiment with OVCAR-3 cells, 0.5 to 2 µM; in experiment [1] it was less than 0.2 µM; on CDK1/Cyclin B1 it was less than 0.2 µM.

As to `CN1CC2(CC(n3cc(Nc4ncc5cc(C(F)F)cc(N6CCC(C#N)(C7CC7)C6)c5n4)cn3)C2)C1` (stereo not drawn) [Example 60, 3-cyclopropyl-1-(6-(difluoromethyl)-2-((1-(2-methyl-2-azaspiro[3.3]heptan-6-yl)-1H-pyrazol-4-yl)amino)quinazolin-8-yl)pyrrolidine-3-carbonitrile], the IC50 at CDK6/Cyclin D3 was less than 0.2 µM; with MCF-7 cells it was 0.5 to 2 µM; at CDK4/Cyclin D1 it was less than 0.2 µM; with OVCAR-3 cells it was 0.5 to 2 µM; in experiment [1] it was 0.2 to 0.5 µM; at CDK1/Cyclin B1 it was 0.5 to 2 µM.

Turning to `O=S(=O)(C1CC1)N1CCC(Nc2ncc3cc(C(F)F)cc(N4CC5(CNCC5F)C4)c3n2)CC1` (stereo not drawn) [Example 104, N-(1-(cyclopropylsulfonyl)piperidin-4-yl)-6-(difluoromethyl)-8-(8-fluoro-2,6-diazaspiro[3.4]octan-2-yl)quinazolin-2-amine], the IC50 is less than 0.2 µM at CDK6/Cyclin D3; 0.2 to 0.5 µM in the experiment with MCF-7 cells; less than 0.2 µM on CDK4/Cyclin D1; 0.2 to 0.5 µM in the experiment on OVCAR-3 cells; less than 0.2 µM in experiment [1]; less than 0.2 µM at CDK1/Cyclin B1.

Turning to `O=S(=O)(CC1CCC1)N1CCC(Nc2ncc3cc(C(F)F)cc(N4CCC5(CNC5)C4)c3n2)CC1` [Example 84, N-(1-((cyclobutylmethyl)sulfonyl)piperidin-4-yl)-6-(difluoromethyl)-8-(2,6-diazaspiro[3.4]octan-6-yl)quinazolin-2-amine], the IC50 is less than 0.2 µM at CDK6/Cyclin D3; 0.5 to 2 µM in the experiment with MCF-7 cells; less than 0.2 µM on CDK4/Cyclin D1; 0.5 to 2 µM in the experiment on OVCAR-3 cells; less than 0.2 µM in experiment [1]; 0.2 to 0.5 µM against CDK1/Cyclin B1.

For the compound `CC1(CCS(=O)(=O)N2CCC(Nc3ncc4cc(C(F)F)cc(N5CC6(CCNC6)C5)c4n3)CC2)CC1` [Example 96, 6-(difluoromethyl)-N-(1-((2-(1-methylcyclopropyl)ethyl)sulfonyl)piperidin-4-yl)-8-(2,6-diazaspiro[3.4]octan-2-yl)quinazolin-2-amine], the IC50 on CDK6/Cyclin D3 was less than 0.2 µM; in the experiment on MCF-7 cells it was 0.5 to 2 µM; on CDK4/Cyclin D1, less than 0.2 µM; in the experiment with OVCAR-3 cells it was 0.5 to 2 µM; in experiment [1] it was less than 0.2 µM; on CDK1/Cyclin B1 it was less than 0.2 µM.

In the case of `CS(=O)(=O)N1CCC(Nc2ncc3cc(C(F)F)cc(N4CC(F)(F)C5(CNC5)C4)c3n2)CC1` [Example 92, 8-(8,8-difluoro-2,6-diazaspiro[3.4]octan-6-yl)-6-(difluoromethyl)-N-(1-(methylsulfonyl)piperidin-4-yl)quinazolin-2-amine], the IC50 was less than 0.2 µM at CDK6/Cyclin D3; 0.5 to 2 µM with MCF-7 cells; less than 0.2 µM at CDK4/Cyclin D1; 0.5 to 2 µM with OVCAR-3 cells; less than 0.2 µM in experiment [1]; less than 0.2 µM against CDK1/Cyclin B1.

Turning to `CS(=O)(=O)N1CCC(Nc2ncc3cc(C(F)F)cc(C4CC5(C4)CN(CC(F)(F)CO)C5)c3n2)CC1` [Example 112, 3-(6-(6-(difluoromethyl)-2-((1-(methylsulfonyl)piperidin-4-yl)amino)quinazolin-8-yl)-2-azaspiro[3.3]heptan-2-yl)-2,2-difluoropropan-1-ol], the IC50 on CDK6/Cyclin D3 was less than 0.2 µM; in the experiment with MCF-7 cells it was 0.2 to 0.5 µM; on CDK4/Cyclin D1, less than 0.2 µM; in the experiment with OVCAR-3 cells it was less than 0.2 µM; in experiment [1], less than 0.2 µM; against CDK1/Cyclin B1 it was less than 0.2 µM.

Regarding `O=S(=O)(CC1CC1)N1CCC(Nc2ncc3cc(C(F)F)cc(N4CC5(CCNC5)C4)c3n2)CC1` [Example 85, N-(1-((cyclopropylmethyl)sulfonyl)piperidin-4-yl)-6-(difluoromethyl)-8-(2,6-diazaspiro[3.4]octan-2-yl)quinazolin-2-amine], the IC50 on CDK6/Cyclin D3 was less than 0.2 µM; in the experiment with MCF-7 cells it was 0.2 to 0.5 µM; at CDK4/Cyclin D1 it was less than 0.2 µM; in the experiment with OVCAR-3 cells it was 0.2 to 0.5 µM; in experiment [1], less than 0.2 µM; against CDK1/Cyclin B1, less than 0.2 µM.

As for `CS(=O)(=O)N1CCC(Nc2ncc3cccc(C4CC(CO)(C(F)F)C4)c3n2)CC1` (stereo not drawn) [Example 121, (1-(difluoromethyl)-3-(2-((1-methanesulfonylpiperidin-4-yl)amino)quinazolin-8-yl)cyclobutyl]methanol], the IC50 on CDK6/Cyclin D3 was less than 0.2 µM; in the experiment with MCF-7 cells it was greater than 2 µM; on CDK4/Cyclin D1 it was less than 0.2 µM; in the experiment on OVCAR-3 cells it was 0.5 to 2 µM; in experiment [1], less than 0.2 µM; against CDK1/Cyclin B1 it was 0.2 to 0.5 µM.

Turning to `COCCN1CC2(CC(c3cc(C(F)F)cc4cnc(NC5CCN(S(C)(=O)=O)CC5)nc34)C2)C1` [Example 89, 6-(difluoromethyl)-8-(2-(2-methoxyethyl)-2-azaspiro[3.3]heptan-6-yl)-N-(1-(methylsulfonyl)piperidin-4-yl)quinazolin-2-amine], the IC50 on CDK6/Cyclin D3 is less than 0.2 µM; with MCF-7 cells it was 0.2 to 0.5 µM; on CDK4/Cyclin D1, less than 0.2 µM; with OVCAR-3 cells, less than 0.2 µM; in experiment [1], less than 0.2 µM; against CDK1/Cyclin B1 it was less than 0.2 µM.

Source of the values: patent US20240092761A1, “QUINAZOLINE COMPOUNDS AND METHODS OF USE” (IAMBIC THERAPEUTICS, INC., priority 2022, published 2024).
